Laboratory results published in US20180000085A1, “USE OF PICOLINAMIDE COMPOUNDS WITH FUNGICIDAL ACTIVITY” (DOW AGROSCIENCES LLC, priority 2014, published 2018).

Tests used:
Assay type in all cases: in vivo
Rhyncosporium secalis = assay: Barley scald (RHYNSE) disease control; design: key: A: > 80; B: ≤ 80; C: Not Tested; D: No Activity Observed in the Reported Assay; conditions: 100 ppm, 1 Day Protectant
Procedure: All fungicides were evaluated using the aforementioned method for their activity vs. all target diseases, unless stated otherwise. Wheat leaf blotch and brown rust activity were also evaluated using track spray applications, in which case the fungicides were formulated as EC formulations, containing 0.1% Trycol 5941 in the spray solutions. Wheat plants (variety Yuma) were grown from seed in a greenhouse in 50% mineral soil/50% soil-less Metro mix until the first leaf was fully emerged, with 7-10 seedlings per pot. These plants were inoculated with an aqueous spore suspension of Zymoseptoria tritici either prior to or after fungicide treatments. After inoculation the plants were kept in 100% relative humidity (one day in a dark dew chamber followed by two to three days in a lighted dew chamber at 20° C.) to permit spores to germinate and infect the leaf. The plants were then transferred to a greenhouse set at 20° C. for disease to develop. When disease symptoms were fully expressed on the 1st leaves of untreated plants, infection levels were assessed on a scale of 0 to 100 percent disease severity. Percent disease control was calculated using the ratio of disease severity on treated plants relative to untreated plants. Example H: Evaluation of Fungicidal Activity: Barley Scald (Rhyncosporium secalis; Bayer Code […]) Barley seedlings (variety Harrington) were propagated in soil-less Metro mix, with each pot having 8 to 12 plants, and used in the test when first leaf was fully emerged. Test plants were inoculated by an aqueous spore suspension of Rhyncosporium secalis 24 hr after fungicide treatments. After inoculation the plants were kept in a dew room at 22° C. with 100% relative humidity for 48 hr. The plants were then transferred to a greenhouse set at 20° C. for disease to develop. Fungicide formulation, application and disease assessment on the sprayed leaves followed the procedures as described in the Example A.

Zymoseptoria tritici = assay: Leaf blotch of wheat (SEPTTR) disease control on wheat seedlings; conditions: for SEPTTR 1DP, LV activity at 125.1 g/H (% Control rating) / SEPTTR 3DC, LV activity at 125.1 g/H (% Control rating) / SEPTTR 1DP disease control rating, LV activity at 125.1 g/H / SEPTTR 3DC disease control rating, LV activity at 125.1 g/H: low volume application; for SEPTTR 1DP disease control rating, LV activity at 125.1 g/H: 1 day protectant; for SEPTTR 3DC disease control rating, LV activity at 125.1 g/H: 3 day curative
Leptosphaeria nodorum = assay: Wheat glume blotch (LEPTNO) disease control; conditions: 100 ppm, 1 Day Protectant
Procedure: All fungicides were evaluated using the aforementioned method for their activity vs. all target diseases, unless stated otherwise. Wheat leaf blotch and brown rust activity were also evaluated using track spray applications, in which case the fungicides were formulated as EC formulations, containing 0.1% Trycol 5941 in the spray solutions. Wheat plants (variety Yuma) were grown from seed in a greenhouse in 50% mineral soil/50% soil-less Metro mix until the first leaf was fully emerged, with 7-10 seedlings per pot. These plants were inoculated with an aqueous spore suspension of Zymoseptoria tritici either prior to or after fungicide treatments. After inoculation the plants were kept in 100% relative humidity (one day in a dark dew chamber followed by two to three days in a lighted dew chamber at 20° C.) to permit spores to germinate and infect the leaf. The plants were then transferred to a greenhouse set at 20° C. for disease to develop. When disease symptoms were fully expressed on the 1st leaves of untreated plants, infection levels were assessed on a scale of 0 to 100 percent disease severity. Percent disease control was calculated using the ratio of disease severity on treated plants relative to untreated plants. Example C: Evaluation of Fungicidal Activity: Wheat Glume Blotch (Leptosphaeria nodorum; Bayer Code […]) Wheat plants (variety Yuma) were grown from seed in a greenhouse in 50% mineral soil/50% soil-less Metro mix until the first leaf was fully emerged, with 7-10 seedlings per pot. These plants were inoculated with an aqueous spore suspension of Leptosphaeria nodorum 24 hr after fungicide treatments. After inoculation the plants were kept in 100% relative humidity (one day in a dark dew chamber followed by two days in a lighted dew chamber at 20° C.) to permit spores to germinate and infect the leaf. The plants were then transferred to a greenhouse set at 20° C. for disease to develop. Fungicide formulation, application and disease assessment followed the procedures as described in the Example A.

Structure (SMILES) | RHYNSE disease control, 1DP (Rhyncosporium secalis) | SEPTTR 1DP, LV activity at 125.1 g/H (% Control rating) (Zymoseptoria tritici; 1 Day Protectant) | SEPTTR 3DC, LV activity at 125.1 g/H (% Control rating) (Zymoseptoria tritici; 3 Day Curative) | LEPTNO disease control, 1DP (Leptosphaeria nodorum) | also measured
COc1ccnc(C(=O)N[C@@H](C)C(=O)O[C@@H](C)[C@H](Oc2ccccc2Cl)c2ccccc2)c1OC(C)=O [Cmpd 640] | B (≤ 80) | A (> 80) | A (> 80) | A (> 80) | –
CCC(CC)[C@@H](Oc1ccccc1)[C@H](C)OC(=O)[C@H](C)NC(=O)c1nccc(OC)c1OCOC(C)=O [Cmpd 477] | B (≤ 80) | A (> 80) | A (> 80) | A (> 80) | –
COc1ccnc(C(=O)N[C@@H](C)C(=O)O[C@@H](C)[C@H](Oc2cccc(Cl)c2)c2ccccc2)c1OCOC(C)=O [Cmpd 637] | D | A (> 80) | A (> 80) | B (≤ 80) | –
COc1ccnc(C(=O)N[C@@H](C)C(=O)O[C@@H](C)[C@H](Oc2ccccc2)c2ccccc2)c1OCOC(C)=O [Cmpd 500] | A (> 80) | A (> 80) | A (> 80) | A (> 80) | –
C=CC(C)C(Oc1ccccc1)C(C)OC(=O)C(C)NC(=O)c1nccc(OC)c1OCOC(C)=O (centres unmarked) [Cmpd 694] | B (≤ 80) | – | – | A (> 80) | SEPTTR 1DP disease control rating, LV activity at 125.1 g/H (Zymoseptoria tritici): B (≤ 80); SEPTTR 3DC disease control rating, LV activity at 125.1 g/H (Zymoseptoria tritici): A (> 80)
COc1ccnc(C(=O)N[C@@H](C)C(=O)O[C@@H](C)[C@H](Oc2cccc(F)c2)c2ccccc2)c1OCOC(C)=O [Cmpd 574] | A (> 80) | A (> 80) | A (> 80) | A (> 80) | –
COc1ccnc(C(=O)N[C@@H](C)C(=O)O[C@@H](C)[C@H](Oc2cccc(Cl)c2)C(C)C)c1OC(C)=O [Cmpd 566] | A (> 80) | B (≤ 80) | A (> 80) | A (> 80) | –
CCC[C@@H](Oc1ccccc1)[C@H](C)OC(=O)[C@H](C)NC(=O)c1nccc(OC)c1OCOC(C)=O [Cmpd 699] | B (≤ 80) | – | – | A (> 80) | SEPTTR 1DP disease control rating, LV activity at 125.1 g/H (Zymoseptoria tritici): A (> 80); SEPTTR 3DC disease control rating, LV activity at 125.1 g/H (Zymoseptoria tritici): A (> 80)
COc1ccnc(C(=O)N[C@H](C)C(=O)O[C@H](C)[C@@H](Oc2ccccc2)C(C)C)c1OCOC(C)=O [Cmpd 548] | – | B (≤ 80) | B (≤ 80) | – | –
CCCOC(CC)C(Oc1ccccc1)C(C)OC(=O)C(C)NC(=O)c1nccc(OC)c1OCOC(C)=O (centres unmarked) [Cmpd 446] | B (≤ 80) | – | – | A (> 80) | SEPTTR 1DP disease control rating, HV activity (Zymoseptoria tritici; HV application at 100 ppm, 1 Day Protectant, wheat leaf blotch): A (> 80); SEPTTR 3DC disease control rating, HV activity (Zymoseptoria tritici; HV application at 100 ppm, 3 Day Curative, wheat leaf blotch): A (> 80); SEPTTR 1DP disease control rating, LV activity (Zymoseptoria tritici; Low volume application at 125.1 g/H, 1 Day Protectant, wheat leaf blotch): A (> 80); SEPTTR 3DC disease control rating, LV activity (Zymoseptoria tritici; Low volume application at 125.1 g/H, 3 Day Curative, wheat leaf blotch): A (> 80)
COc1ccnc(C(=O)N[C@H](C)C(=O)O[C@H](C)[C@@H](Oc2ccccc2)c2ccccc2)c1OCOC(C)=O [Cmpd 549] | – | B (≤ 80) | B (≤ 80) | – | –
COc1ccnc(C(=O)N[C@@H](C)C(=O)O[C@@H](C)[C@H](Oc2ccccc2)C2CCCC2)c1OCOC(C)=O [Cmpd 556] | B (≤ 80) | A (> 80) | A (> 80) | A (> 80) | –
CC[C@@H](CCOC)[C@@H](Oc1ccccc1)[C@H](C)OC(=O)[C@H](C)NC(=O)c1nccc(OC)c1OC(C)=O [Cmpd 482] | – | A (> 80) | A (> 80) | A (> 80) | –
CCC(C)C(Oc1ccccc1)C(C)OC(=O)C(C)NC(=O)c1nccc(OC)c1OC(C)=O (centres unmarked) [Cmpd 691] | B (≤ 80) | – | – | A (> 80) | SEPTTR 1DP disease control rating, LV activity at 125.1 g/H (Zymoseptoria tritici): A (> 80); SEPTTR 3DC disease control rating, LV activity at 125.1 g/H (Zymoseptoria tritici): A (> 80)
COc1ccnc(C(=O)N[C@H](C)C(=O)O[C@H](C)[C@H](Oc2ccccc2)C(C)C)c1OCOC(C)=O [Cmpd 560] | – | B (≤ 80) | B (≤ 80) | – | –
CC[C@@H](CCOC)[C@@H](Oc1ccccc1)[C@H](C)OC(=O)[C@H](C)NC(=O)c1nccc(OC)c1OCOC(C)=O [Cmpd 476] | B (≤ 80) | A (> 80) | A (> 80) | A (> 80) | –
CCC(C)C(Oc1ccccc1)C(C)OC(=O)C(C)NC(=O)c1nccc(OC)c1OCOC(C)=O (centres unmarked) [Cmpd 692] | A (> 80) | – | – | A (> 80) | SEPTTR 1DP disease control rating, LV activity at 125.1 g/H (Zymoseptoria tritici): A (> 80); SEPTTR 3DC disease control rating, LV activity at 125.1 g/H (Zymoseptoria tritici): A (> 80)
COc1ccnc(C(=O)N[C@@H](C)C(=O)O[C@@H](C)[C@H](Oc2ccccc2)C(C)C)c1OCOC(C)=O [Cmpd 475] | B (≤ 80) | A (> 80) | A (> 80) | A (> 80) | –
COc1ccnc(C(=O)N[C@H](C)C(=O)O[C@@H](C)[C@H](Oc2ccccc2)C(C)C)c1OCOC(C)=O [Cmpd 558] | – | B (≤ 80) | B (≤ 80) | – | –
COc1ccnc(C(=O)N[C@@H](C)C(=O)O[C@H](C)[C@@H](Oc2ccccc2)c2ccccc2)c1OCOC(C)=O [Cmpd 547] | – | A (> 80) | A (> 80) | – | –
COc1ccnc(C(=O)N[C@H](C)C(=O)O[C@@H](C)[C@@H](Oc2ccccc2)C(C)C)c1OCOC(C)=O [Cmpd 559] | – | B (≤ 80) | A (> 80) | – | –
COc1ccnc(C(=O)N[C@@H](C)C(=O)O[C@@H](C)[C@@H](Oc2ccccc2)C(C)C)c1OCOC(C)=O [Cmpd 552] | – | A (> 80) | A (> 80) | – | –
COc1ccnc(C(=O)N[C@@H](C)C(=O)O[C@@H](C)[C@@H](CC(C)C)Oc2ccccc2)c1OCOC(C)=O [Cmpd 557] | – | A (> 80) | A (> 80) | – | –
